ChEMBL document CHEMBL1201862, “PubChem BioAssay data set” (2004)
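Protocol summary: plate cells (96-well), add compound at 5 concentrations, incubate 48 h, interpolate endpoints linearly. GI50 = concentration required for 50% inhibition of growth.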 The source made the active and inactive calls. Cut-off read from the data, not from the text of the source: active = GI50 up to about 1.1 µM and inactive = higher.

Legend:
Assay in all cases: NCI-60 cell line screen, 48 h
COLO 205 = tested on: COLO 205
DU-145 = tested on: DU-145
EKVX = tested on: EKVX
HOP-62 = tested on: HOP-62
HOP-92 = tested on: HOP-92
Hs-578T = tested on: Hs-578T
IGROV-1 = tested on: IGROV-1
M14 = tested on: M14
MDA-N = tested on: MDA-N
NCI-H23 = tested on: NCI-H23
NCI-H460 = tested on: NCI-H460
NCI/ADR-RES = tested on: NCI/ADR-RES
OVCAR-8 = tested on: OVCAR-8
RXF 393 = tested on: RXF 393
SK-MEL-28 = tested on: SK-MEL-28
SNB-19 = tested on: SNB-19
SW-620 = tested on: SW-620
TK-10 = tested on: TK-10
UACC-257 = tested on: UACC-257
UO-31 = tested on: UO-31

Measured: GI50

Cc1c2c(nc3ccccc13)C(=O)c1cccnc1C2=O
inactive: COLO 205 17.1 µM | DU-145 21.6 µM | EKVX 20 µM | HOP-62 20.6 µM | HOP-92 65.5 µM | Hs-578T 33.5 µM | IGROV-1 17.8 µM | M14 6.52 µM | MDA-N 1.77 µM | NCI-H23 6.46 µM | NCI-H460 1.96 µM | NCI/ADR-RES 27.2 µM | OVCAR-8 16.8 µM | RXF 393 63.5 µM | SK-MEL-28 11.5 µM | SNB-19 16.3 µM | SW-620 12.1 µM | TK-10 > 100 µM | UACC-257 6.97 µM | UO-31 15.2 µM

O=C(O)CNc1ccc(C(=O)O)cc1
inactive: COLO 205 > 100 µM | DU-145 > 100 µM | EKVX > 100 µM | HOP-62 > 100 µM | HOP-92 > 100 µM | Hs-578T > 100 µM | IGROV-1 > 100 µM | M14 > 100 µM | MDA-N > 100 µM | NCI-H23 > 100 µM | NCI-H460 > 100 µM | NCI/ADR-RES > 100 µM | OVCAR-8 > 100 µM | RXF 393 > 100 µM | SK-MEL-28 > 100 µM | SNB-19 > 100 µM | SW-620 > 100 µM | TK-10 > 100 µM | UACC-257 > 100 µM | UO-31 > 100 µM

Cc1ccc2c(ccc(/C=C/c3ccc(O)c4ncccc34)[n+]2C)c1
inactive: COLO 205 5.38 µM | DU-145 > 32.1 µM | EKVX 18.1 µM | HOP-62 6.85 µM | HOP-92 14.7 µM | Hs-578T > 100 µM | IGROV-1 15.8 µM | M14 13.6 µM | MDA-N > 24 µM | NCI-H23 11 µM | NCI-H460 2.87 µM | NCI/ADR-RES > 49.5 µM | OVCAR-8 2.38 µM | RXF 393 16.3 µM | SK-MEL-28 10.3 µM | SNB-19 12.9 µM | SW-620 4.65 µM | TK-10 15.6 µM | UACC-257 8.04 µM | UO-31 > 33.9 µM

OCC1CCC(n2cnc3c(O)ncnc32)O1 (stereo not drawn)
inactive: COLO 205 > 100 µM | DU-145 > 1000 µM | EKVX > 100 µM | HOP-62 > 100 µM | HOP-92 > 100 µM | Hs-578T > 1000 µM | IGROV-1 > 100 µM | M14 > 1000 µM | MDA-N > 1000 µM | NCI-H23 > 100 µM | NCI-H460 > 100 µM | NCI/ADR-RES > 100 µM | OVCAR-8 > 100 µM | RXF 393 > 100 µM | SK-MEL-28 > 100 µM | SW-620 > 100 µM | TK-10 > 1000 µM | UACC-257 > 87.9 µM | UO-31 502 µM

CC1(C)CCCCCCCCCC2CC2CCC(C)(C)C1=O (stereo not drawn)
inactive: COLO 205 18.5 µM | DU-145 20.5 µM | EKVX 20.2 µM | HOP-62 21.8 µM | HOP-92 26.3 µM | Hs-578T 31.3 µM | IGROV-1 41.3 µM | M14 18.8 µM | MDA-N 30.9 µM | NCI-H23 40.5 µM | NCI-H460 21.1 µM | NCI/ADR-RES 21 µM | OVCAR-8 30.2 µM | RXF 393 15.4 µM | SK-MEL-28 25.9 µM | SNB-19 34.6 µM | SW-620 35.9 µM | TK-10 22.9 µM | UACC-257 23.6 µM | UO-31 19.6 µM

Cc1[nH]c(=O)nc(N/N=C/c2ccc(Cl)cc2)c1C(=O)Nc1ccc(Cl)cc1
inactive: COLO 205 25.6 µM | DU-145 > 100 µM | EKVX > 86.5 µM | HOP-62 10.6 µM | HOP-92 28.8 µM | Hs-578T > 100 µM | IGROV-1 > 86.3 µM | M14 8.07 µM | MDA-N 31.6 µM | NCI-H23 30.7 µM | NCI-H460 10.4 µM | NCI/ADR-RES 34.1 µM | OVCAR-8 10.2 µM | RXF 393 23 µM | SK-MEL-28 27.4 µM | SNB-19 7.41 µM | SW-620 16.6 µM | TK-10 27.6 µM | UACC-257 31 µM | UO-31 > 100 µM

N#CC(Cc1ccccc1)N(CCC1=CCCCC1)C(c1ccccc1)c1ccccc1 (stereo not drawn)
inactive: COLO 205 35.2 µM | DU-145 > 100 µM | EKVX 35.7 µM | HOP-62 > 100 µM | HOP-92 28.1 µM | Hs-578T 69.3 µM | IGROV-1 > 100 µM | M14 18.8 µM | MDA-N 24.4 µM | NCI-H23 60.1 µM | NCI-H460 33.5 µM | NCI/ADR-RES > 100 µM | OVCAR-8 > 100 µM | RXF 393 27.9 µM | SK-MEL-28 77.3 µM | SNB-19 > 100 µM | SW-620 38.9 µM | TK-10 > 100 µM | UACC-257 43 µM | UO-31 50.6 µM

CC1(C)OCC([C@H]2O[C@@H](CC(=S)NCCCCCCCCCCCCNC(=S)C[C@H]3O[C@@H](C4COC(C)(C)O4)[C@H]4OC(C)(C)O[C@H]43)[C@H]3OC(C)(C)O[C@H]32)O1 (stereo partly drawn)
inactive: DU-145 > 100 µM | EKVX 49.9 µM | HOP-62 > 100 µM | HOP-92 > 100 µM | Hs-578T > 100 µM | IGROV-1 > 100 µM | M14 52.5 µM | MDA-N 58.5 µM | NCI-H23 30.7 µM | NCI-H460 25.6 µM | NCI/ADR-RES 25.9 µM | OVCAR-8 53.5 µM | RXF 393 > 100 µM | SK-MEL-28 > 100 µM | SW-620 > 100 µM | TK-10 > 100 µM | UACC-257 42.5 µM | UO-31 19 µM

N#Cc1c(O)cc(=O)n2c1[nH]c1ccccc12
inactive: COLO 205 > 100 µM | DU-145 > 100 µM | EKVX > 100 µM | HOP-62 > 100 µM | HOP-92 > 100 µM | Hs-578T > 100 µM | IGROV-1 > 100 µM | M14 > 100 µM | MDA-N > 100 µM | NCI-H23 > 100 µM | NCI-H460 > 100 µM | NCI/ADR-RES > 100 µM | OVCAR-8 > 100 µM | RXF 393 > 100 µM | SNB-19 > 100 µM | SW-620 > 100 µM | TK-10 > 100 µM | UACC-257 > 100 µM | UO-31 > 100 µM

CC(CO)CCNc1ncnc2c1ncn2CCC(=O)OC(C)(C)C (stereo not drawn)
inactive: COLO 205 > 100 µM | DU-145 > 100 µM | EKVX > 100 µM | HOP-62 > 100 µM | HOP-92 > 100 µM | Hs-578T > 100 µM | IGROV-1 > 100 µM | M14 > 100 µM | MDA-N > 100 µM | NCI-H23 > 100 µM | NCI-H460 > 100 µM | NCI/ADR-RES > 100 µM | OVCAR-8 > 100 µM | RXF 393 > 100 µM | SK-MEL-28 > 100 µM | SNB-19 > 100 µM | SW-620 > 100 µM | TK-10 > 100 µM | UACC-257 > 100 µM | UO-31 > 100 µM

Cc1nc(C)c(N2CCN(CN)CC2)c(O)n1
inactive: COLO 205 > 100 µM | DU-145 > 100 µM | EKVX > 100 µM | HOP-62 > 100 µM | HOP-92 > 100 µM | Hs-578T > 100 µM | IGROV-1 > 100 µM | M14 > 100 µM | MDA-N > 100 µM | NCI-H23 > 100 µM | NCI-H460 > 100 µM | NCI/ADR-RES > 100 µM | OVCAR-8 > 100 µM | RXF 393 > 100 µM | SK-MEL-28 > 100 µM | SNB-19 > 100 µM | SW-620 > 100 µM | TK-10 > 100 µM | UACC-257 > 100 µM | UO-31 > 100 µM

O=C(O)CCC(=O)OC1N=C(c2ccccc2Cl)c2cc([N+](=O)[O-])ccc2NC1=O (stereo not drawn)
inactive: DU-145 > 100 µM | EKVX > 100 µM | HOP-62 70.6 µM | HOP-92 69.2 µM | Hs-578T > 100 µM | IGROV-1 95.9 µM | M14 > 100 µM | MDA-N > 100 µM | NCI-H23 > 100 µM | NCI-H460 > 100 µM | NCI/ADR-RES > 100 µM | OVCAR-8 39 µM | RXF 393 47.3 µM | SK-MEL-28 60.1 µM | SNB-19 > 100 µM | SW-620 26.1 µM | TK-10 86.7 µM | UACC-257 > 100 µM | UO-31 44.6 µM

O=C(CC(C(=O)c1ccco1)c1ccsc1)c1ccco1 (stereo not drawn)
inactive: COLO 205 > 100 µM | DU-145 > 100 µM | EKVX > 100 µM | HOP-62 > 100 µM | HOP-92 > 100 µM | Hs-578T > 100 µM | IGROV-1 > 100 µM | M14 > 100 µM | MDA-N > 100 µM | NCI-H23 > 100 µM | NCI-H460 71.1 µM | NCI/ADR-RES 38.6 µM | OVCAR-8 > 100 µM | RXF 393 48.9 µM | SK-MEL-28 > 100 µM | SW-620 > 100 µM | TK-10 > 100 µM | UACC-257 > 100 µM | UO-31 58.9 µM

O=C1CCCCC1C(O)(C(F)(F)F)C(F)(F)Cl (stereo not drawn)
inactive: COLO 205 > 10 µM | DU-145 > 10 µM | EKVX > 10 µM | HOP-62 > 10 µM | HOP-92 > 10 µM | Hs-578T > 10 µM | IGROV-1 > 10 µM | M14 > 10 µM | MDA-N > 10 µM | NCI-H23 > 10 µM | NCI-H460 > 10 µM | NCI/ADR-RES > 10 µM | OVCAR-8 > 10 µM | RXF 393 > 10 µM | SK-MEL-28 > 10 µM | SNB-19 > 10 µM | SW-620 > 10 µM | TK-10 > 10 µM | UACC-257 > 10 µM
